Laboratory results as given in patent US4727090A, “Process for preparing and therapeutical applications of the 2,4,6-triiodophenol” (Bislak, S.A., priority 1983, dated 1988).
Read-outs that look alike come from different tables or passages of the source.

What was measured:
[1] = test system: Carrageenin leg oedema; test: Carrageenin leg oedema test; assay type: in vivo, white rats; conditions: Rattus norvegicus, 10 mg/kg oral
[2] = test system: Carrageenin leg oedema; test: Carrageenin leg oedema test; assay type: in vivo, white rats; conditions: Rattus norvegicus; 10 mg/kg oral, 4 hours
Protocol: (A) The antiinflammatory action is shown in white rats, of a weight of about 200-225 g, having provoked in these animals the leg oedema by means of an injection in the sole of the foot of 0.1 ml of a 1% Carrageenin solution.
One control group of ten animals, another the same medicated with indomethacin via oral at 30 mg/kg, in suspension in a carboxymethylcellulose solution, another group of ten rats, medicated with triiodophenol in oral solution at 5 mg/kg, another group medicated with triioodophenol at 1 mg/kg, injected via intramuscular and another group medicated with triiodophenol at 0.5 mg/kg via intramuscular. All medications are administered simultaneously to the formation of Edema.
The volume of the same is measured at 0 hours, 3 hours, 4 hours, 5 hours and 6 hours with a mercury Plestimograph.

[3] = test system: sensation of pain on hot plate; test: Hot plate test at 56° C; assay type: in vivo, mice; conditions: 500 mg/kg injection
Protocol: (A) To control analgesic activity we use mice of about 25 g by weight, in groups of ten mice, subjected to the test of the hot plate at 56° C.
Animals receive a medicamentous injection of 0.1 ml of solubilized aspirin with sodium bicarbonate, or of solubilized triiodophenol at pH 9'5.
Controls receive physiologic serum.
The time in which the animals indicate sensation of pain is measured with a chronometer.
In the hereunder table the results testing animals, 15 min. and 30 min. after the medication. Average values are taken of each group.

[4] = test system: acetic acid induced pullings; test: Writhing syndrome test (acetic acid); assay type: in vivo, mice; conditions: 500 mg/kg oral; for inhibition at 500 mg/kg: Mus musculus, po, read-out: % INHIB. (pullings)
Protocol: Irritant substance: acetic acid at 0.5% injected via intraperitoneal.
Foundation of the method consists in provoking a dolorous syndrome by pulling and torsion of the stomach and the hind legs of the animals.
These pullings or stretchings are calculated during a certain time, using it as the measure of the provoked ache.
Mice of about 22 g by weight were used, animals were left under abstinence during 24 hours before carrying out the test.
Mice were previously selected as to each individual response to the dolorous stimulus provoked by an intraperitoneal injection of 0.2 ml of an acetic acid aqueous solution at the 0.5%. Valid animals for realizing the test are those which respond within a margin of 15-35 pullings in about 5 to 15 minutes after the injection. The remaining animals are not useful.
Medication is realized via oral with the help of an esophageal cannula.
White lot: Administration of 0.1 ml of CMC 1% for each 10 g of corporal weight.
2,4,6-triiodophenol lot: Administration of 10 mg/kg of the product, suspended in CMC of 1%.
Aspirin-Lysin lot (Solusprin): Administration of 500 mg/kg aspirin, dissolved at 1%.
After medication, one has to wait 20 minutes for injecting 0.2 ml acetic acid of 0.5% via intraperitoneal, calculating the number of pullings during 5 minutes. […]
The test was carried out in 9 mice in each lot.

[5] = test system: granuloma formed around cotton implant; test: Cotton implant granuloma test; assay type: in vivo, rats; conditions: 72 hours
Protocol: (B) To a group of 10 rats of about 200-225 g is implanted at the dorsal zone, subcutaneously, balled cotton (about 9 mg) impregnated and afterwards dried with a solution of medicamentous substance and which amount is known.
We use as reference Dexamethasone and controls without medicament.
After 72 hours, once the animal is sacrificed, the granuloma formed around the implant is extracted and weighed, after drying at 100° C.
The antiinflammatory reduces the weight of the granuloma.

`COc1ccc2c(c1)c(CC(=O)O)c(C)n2C(=O)c1ccc(Cl)cc1` [Indomethacin] was tested, and the inhibition at 10 mg/kg ([1]; 3 hours) was 59%, the inhibition at 10 mg/kg ([1]; 5 hours) was 69% and the inhibition at 10 mg/kg ([1]; 6 hours) was 73%. The inhibition at 10 mg/kg [2] was 63%.
For `CC(=O)Oc1ccccc1C(=O)O` [Acetyl salicylic acid, reference compound], the “Time to sensation of pain” value ([3]; 15 minutes) was 4,3 sec and the “Time to sensation of pain” value ([3]; 30 minutes) was 6,8 sec.
With `CC(=O)Oc1ccccc1C(=O)O` [ASPIRIN, reference compound] the “Total No. pullings” value ([4]; 20') was 12, the “Total No. pullings” value ([4]; 30') was 6 and the “Total No. pullings” value ([4]; 100') was 6. The inhibition at 500 mg/kg ([4]; 20') was 90% and the inhibition at 500 mg/kg ([4]; 30') was 89.2%.
In the case of `C[C@@H]1C[C@H]2[C@@H]3CCC4=CC(=O)C=C[C@]4(C)[C@@]3(F)[C@@H](O)C[C@]2(C)[C@@]1(O)C(=O)CO` [Dexamethansone, reference compound], the “% Reduction of the granuloma (Average)” value ([5]; 10 micrograms per implant) was 16%, the “% Reduction of the granuloma (Average)” value ([5]; 20 micrograms per implant) was 28% and the “% Reduction of the granuloma (Average)” value ([5]; 40 micrograms per implant) was 30%.
